# Patent publication US20200375996A1, “METHOD OF TREATING NEURODEGENERATIVE DISORDERS BY RESCUING ALPHA-SYNUCLEIN TOXICITY” (D.E. Shaw Research, LLC, priority 2015, published 2020)
# What was measured:
# [1] = system: α-synuclein-expressing yeast; assay: α-synuclein toxicity rescue in yeast (growth, OD600); type: cell-based; conditions: for rescue of aSyn toxicity in yeast (in words): FIGS. 8A-8B
# Method: Yeast Strains and culturing: Yeast strains expressing alpha-synuclein have been described in Cooper at. al, 2006. (Cooper A A, et al. Alpha-synuclein blocks ER-Golgi traffic and Rab1 rescues neuron loss in Parkinson's models. Science. 2006 Jul. 21; 313:324) Strains express multiple copies of alpha-synculein for galactose-inducible expression. […] Yeast were cultured in complete synthetic media (CSM) and an appropriate dropout (lacking histidine or uracil) to maintain plasmids if required. For galactose-induction experiments, overnight cultures were grown in CSM/2% glucose to saturation and diluted 1:20 into CSM/2% raffinose for ˜2 generations. Cultures were then diluted into CSM/2% galactose at an optimum OD600 for the experiment (see ‘Growth assays’).
# Yeast Growth assays: Starting cultures for all dose-response assays were based on strains initially constructed in the lab to maintain homogeneity across experiments. All growth assays were carried out in 384 well format. Source plates were assembled in 96 well plates using multichannel pipettes to dilute rows in 1.6-fold serial dilutions of CSMGal. To these dilution series containing 2× final concentration of compound, 2×OD600 culture (in CSMGal) was dispensed with a multichannel pipette to achieve a final drug/culture mix with the desired OD600 and drug concentration. For WT yeast, the final starting OD600 was 0.01. For α-syn, the final starting OD600 was 0.02. Drug concentration ranges varied depending on efficacy, growth inhibition, and solubility in media. A Tecan EvoFreedom liquid handling robot was then used to transfer culture from 96 to 384 well format with each well being represented four times. Final well volume was 35 μL. Plates were then incubated in humidified containers at 30° C. for either 24 or 40 hours. Plates were then read with a Tecan Saphire plate reader at OD600.
# Raw OD600 values were transformed to “Relative Growth” in WT cells or “% Maximum Rescue” in α-syn experiments. In WT cells, the well background was subtracted and all values were then normalized to 100% for the untreated condition. In α-syn rescue experiments, the well background was subtracted and the maximum rescue in the particular experiment was normalized to 100%.
# Sna3-GFP [2] = assay: Sna3-GFP trafficking to the vacuole (Western blot, GFP cleavage); type: cell-based, yeast; conditions: for ratio of Sna3-GFP to free GFP: 10 μM, FIGS. 16A-16F, within the compound series; for Sna3-GFP trafficking to the vacuole (in words): galactose 5 hours, FIGS. 15B-15F
# Method: Log phase CsmRaf cultures of WT tagged Sna3-GFP cells were shifted to galactose for 5 hours in the presence or absence of the compounds. Cell pellets were lysed in SDS-loading dye and Sna3-GFP cleavage monitored by Western blotting with an anti-GFP antibody. Log phase CsmRaf cultures of WT or α-syn yeast were shifted to galactose for 5 hours in the presence or absence of the compounds at which point they were then prepared for Western blot analysis. FIGS. 15B-15F show Western blot analyses of Sna3-GFP for various compounds.
# Ratio of the intact Sna3-GFP to cleaved GFP was calculated for each of the conditions as a readout for efficiency of trafficking of the Sna3-GFP molecule to the vacuole. Polyubiquitination of Sna3-GFP was used as a readout for the intermediate step at the multivesicular body. Image Studio software was used to determine the intensities of the bands, based on linear interpolation of the mean signal intensities from each of the areas of interest and ratios were subsequently calculated in Microsoft Excel and plotted according to the compound series as shown in FIGS. 16A-16F. In the ‘32’ series of analogs, the ratio of Sna3-GFP to free GFP varied among the analogs, with DES-2179 having the lowest ratio of Sna3-GFP to free GFP and DES-2866 having the highest ratio (FIG. 16A). In the ‘91’ series of analogs, the ratio of Sna3-GFP to free GFP varied among the analogs, but less so than for the ‘32’ series (FIG. 16B). In the ‘4117’ series of analogs, the ratio of Sna3-GFP to free GFP was lowest for DES-5212 (FIG. 16C). […] In the ‘28’ series of analogs, DES-2817 had the lowest ratio of Sna3-GFP to free GFP (FIG. 16F). The other compounds in the ‘28’ series had ratios between ˜0.5 and 1.0 (FIG. 16F). In the ‘37’ series of analogs, the ratio of Sna3-GFP to free GFP was greatest for DES-2926 (FIG. 16F).
# Rsp5 = target: T1, Rsp5 (Saccharomyces cerevisiae, UniProt P39940); assay: Back-Scattering Interferometry (BSI) binding to recombinant Rsp5; conditions: for Kd: 100 nM Rsp5, one-site saturation binding model, read-out: dissociation constant (Kd) for binding to Rsp5
# T1 sequence (P39940 431-809 limits assumed): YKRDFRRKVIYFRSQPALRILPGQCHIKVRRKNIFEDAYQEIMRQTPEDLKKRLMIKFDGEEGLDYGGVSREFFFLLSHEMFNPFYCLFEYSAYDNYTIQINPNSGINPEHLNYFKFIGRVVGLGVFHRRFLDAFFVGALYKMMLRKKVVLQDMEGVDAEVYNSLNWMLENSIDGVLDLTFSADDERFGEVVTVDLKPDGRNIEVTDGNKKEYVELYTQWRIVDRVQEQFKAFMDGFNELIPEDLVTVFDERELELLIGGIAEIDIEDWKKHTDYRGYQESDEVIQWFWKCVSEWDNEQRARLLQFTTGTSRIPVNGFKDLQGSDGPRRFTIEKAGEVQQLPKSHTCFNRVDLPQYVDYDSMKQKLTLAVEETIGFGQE
# Method: Sample Preparation of Rsp5 Target: Rsp5 was supplied in 15 μL aliquots of 100 μM (25 mM HEPES pH 7.5, 200 mM NaCl, 5 mM DTT) by St. Jude Research Hospital (Memphis, Tenn.) and was stored at −80° C. Immediately prior to assays fresh aliquots were thawed and diluted in 25 mM HEPES, pH 7.5, 200 mM NaCl, 1 mM DTT, 0.005% pluronic acid and 1% DMSO. The final Rsp5 concentration in the binding assay was 100 nM.
# Sample Preparation of compounds (ligands): The compounds were received as solids and reconstituted to either 40 or 20 mM in 100% DMSO and stored at −80° C. in single use aliquots. The final concentration of each ligand in an assay was 50 μM with a 2× serial dilution to create a 12-point curve.
# The assay buffer was 25 mM HEPES, pH 7.5, 200 mM NaCl, 1 mM DTT, 0.005% pluronic acid, 1% DMSO. The assay was run in Eppendorf 96-well PCR microplates. 55 μL of either Rsp5 or buffer (as control) were added to a each well. To these wells were added 55 μL of the compound dilution. A reference channel containing only buffer was setup as well for thermal compensation during assay measurements. The plates were heat sealed with foil and the assay plates were allowed to incubate at room temperature for 2 hours. Wells were pierced individually prior to sample injection and measurement of BSI signal (each well analyzed in duplicate). The assays were run using a glass microfluidic chip with a proprietary surface treatment on TruBind™ 100 system.
# The BSI signal was expressed as the magnitude of the spatial shift of the fringe pattern on a CMOS camera, measured in milliradians. The control signal was subtracted from assay signal for each compound dilution point. The resulting values were re-zeroed and analyzed with the GraphPad Prism program. The dissociation constant (Kd) was derived from non-linear least-squares fitting of the data using the one-site saturation binding model. The goodness of fit was judged by the calculated R^2 value. The difference and control curves for at least two successful assays were averaged. The resulting average difference curve was used to calculate the reported Kd value for each compound.
# Carboxypeptidase Y (CPY) = assay: Western blot of Carboxypeptidase Y (CPY) trafficking; type: cell-based, yeast
# Method: (§1) Protein analysis was performed in NoTox and HiTox strains with the compound treatment at indicated concentrations. Log phase CSM/2% raffinose cultures were induced with 2% galactose for 5 hours with DMSO or the compounds. Cultures were normalized to cell density and cell pellets prepared for SDS-PAGE. Cell pellets were boiled in SDS-loading dye for 15′, centrifuged, and resolved by 4-12% SDS-PAGE. CPY western blots were performed using culture conditions as described above. An anti-Cpy antibody (Invitrogen, A6428) was used at 1:5,000. Post-ER:ER ratios were quantitated using an IRDye800 secondary antibody (Li-Cor Odyssey, Rockland Immunochemicals) and scanned with the Li-Cor Odyssey imaging system. Significance was determined using a one-way ANOVA and Tukey's test of significance. From the same gel, total protein was detected by coomassie staining. Both blots and coomassie-stained gels were scanned using the Li-Cor Odyssey imaging system and quantitated. Significance was determined using a one-way ANOVA with Tukey's test of significance.
# [3] = system: K63 linkages in iPS derived human neurons; assay: K63-Ub linkages in human iPS derived neuronal cultures (immunoblot); type: cell-based
# Method: Human HEK-293 or neuronal cells treated with the appropriate compounds, were washed twice with ice cold PBS and then 0.5 ml of Lysis buffer was added and cells were scraped off the 10 cm dish (1 ml for 15 cm).
# Lysis buffer is 50 mM Tris/HCl pH 7.5, 1 mM EGTA, 1 mM EDTA, 0.5 or 1% (v/v) NP-40, 1 mM sodium orthovanadate, 50 mM NaF, 5 mM sodium pyrophosphate, 0.27 M sucrose, 10 mM sodium 2-glycerophosphate, 0.2 mM phenylmethylsulphonyl fluoride, 1 mM benzamidine, plus 100 mM iodoacetamide added fresh prior to lysis (weight powder, don't use a frozen stock solution) to inactivate deubiquitylase activities and add also pepstatin/aprotinin to inhibit proteases. Cell extracts were sonicated twice for 15 seconds each time and clarified by centrifugation at 14000 g for 15 min at 4° C. Supernatants were collected and filtered using a 0.45 uM MiniSart/Syringe. Next, protein concentrations were determined by Bradford procedure.
# The avidity based K63 linkage sensor protein was based on Sims et. al, 2012. Briefly, avidity based K63 sensor Halo-fusion protein was expressed in an E. coli expression vector and covalently bound to Halo-tag beads [Magne® HaloTag® Beads, 20% Slurry; Cat #G7281]. […] After incubation, the beads were washed three times with 1 ml of Lysis buffer containing 500 mM NaCl and once with 0.5 ml of 10 mM Tris/HCl pH 8.0. […] The eluate is heated at 75° C. for 5 min and analysed by immuno-blotting using an anti-K63 linkage specific antibody (http://www.abcam.com/ubiquitin-linkage-specific-k63-epr8590-448-antibody-ab179434.html).
# Pure neuronal cultures derived from human iPS cells were treated with DMSO, DES-2877, DES-4114 and #32 at 5 μM for 12 hours. […] Ubiquitylation site identification by mass spectrometry was performed as described Kim et al., (Systematic and quantitative assessment of the ubiquitin-modified proteome. Mol Cell. 2011; 44:325-340). and Sarraf et al., (Landscape of the PARKIN-dependent ubiquitylome in response to mitochondrial depolarization. Nature. 2013; 496:372-376).
# Sna3-GFP [4] = assay: Immunoblot analysis of Sna3-GFP polyubiquitination in WT and α-syn cells; type: cell-based, yeast; conditions: FIG. 11B
# Method: as §1
# In WT Sna3-GFP cells, log phase CSMRaf cultures were shifted to galactose for 5 hours in the presence or absence of the compounds. Cell pellets were lysed in SDS-loading dye and Sna3-GFP cleavage monitored by Western blotting with an anti-GFP antibody. […]
# [5] = system: aSyn-expressing yeast cells; assay: Morphological analysis of aSyn-expressing yeast cells; type: cell-based; conditions: 10 uM, galactose induction five hours, FIG. 10
# Method: Raffinose cultures of α-syn expressing yeast cells were grown up to the logarithmic phase in raffinose. Cultures were induced with galactose for five hours in the presence or absence of the indication concentration of the compounds. In the present example, the identified compounds were present at a concentration of 10 uM. Cells were centrifuged, media discarded, and then fixed with 4% paraformaldehyde in 1×PBS for 1 hr. The fixed culture was centrifuged, and the pellet resuspended in 0.4% paraformaldehyde in 1×PBS and kept at 4° C.
structure (smiles),measurement,setting,value
O=C(c1ccc(COc2ccc(OC(F)(F)F)cc2)o1)N1CCN(c2ccccc2)CC1 [DES-2184],rescue of aSyn toxicity in yeast (in words),[1],also effective
CCCCc1ccc2nc(-c3ccc(-c4cc(Cl)cc(Cl)c4)o3)cc(C(=O)O)c2c1 [DES-2817],ratio of Sna3-GFP to free GFP,Sna3-GFP [2],lowest ratio
same,Sna3-GFP trafficking to the vacuole (in words),Sna3-GFP [2],promote Sna3-GFP trafficking to the vacuole
COc1cc(Cl)cc(/C=N/Nc2nc(Nc3ccc(C)c(Cl)c3)nc(N3CCOCC3)n2)c1O [DES-2866],ratio of Sna3-GFP to free GFP,Sna3-GFP [2],highest ratio
same,rescue of aSyn toxicity in yeast (in words),[1],also effective
COc1cc(/C=N/Nc2nc(Nc3ccccc3)nc(N3CCOCC3)n2)ccc1OCC#N [DES-3001],Sna3-GFP trafficking to the vacuole (in words),Sna3-GFP [2],promote Sna3-GFP trafficking to the vacuole
same,binding to Rsp5 (in words),Rsp5,did not show binding
COc1cc(Cl)cc(/C=N/Nc2nc(Nc3cc(C)ccc3C)nc(N3CCOCC3)n2)c1O [DES-2877],accumulation of CPY trafficking intermediates en route to the vacuole,Carboxypeptidase Y (CPY); FIG. 11D,increase
same,rescue of aSyn toxicity in yeast (in words),[1],most effective
same,K63 linkages in iPS derived human neurons,"[3]; 5 μM for 12 hours, FIG. 13A",modest increase
same,polyubiquitinated Sna3-GFP,Sna3-GFP [4],increase
same,Kd,Rsp5,1700 ± 400 nM
same,morphology: vesicular intermediates in yeast cells,[5],accumulation of vesicular intermediates
C(=N\Nc1cc(N2CCOCC2)nc(Nc2ccccc2)n1)/c1ccncc1 [DES-5212],ratio of Sna3-GFP to free GFP,Sna3-GFP [2],lowest
same,Sna3-GFP trafficking to the vacuole (in words),Sna3-GFP [2],promote Sna3-GFP trafficking to the vacuole
same,Kd,Rsp5,680 ± 180 nM
Cc1ccc(C2CC(C(F)(F)F)n3nc(C(=O)N4CCN(c5ccccc5)CC4)cc3N2)cc1 (stereo not drawn) [DES-2960],Sna3-GFP trafficking to the vacuole (in words),Sna3-GFP [2],promotes Sna3-GFP trafficking to the vacuole better than DES-2866 and DES-2928
C(=N\Nc1nc(Nc2ccccc2)nc(N2CCOCC2)n1)/c1ccncc1 [DES-4117],binding to Rsp5 (in words),Rsp5,did not show binding
O=C(c1ccc(COc2ccc3ccccc3c2)o1)N1CCN(c2ncccn2)CC1 [DES-2926],ratio of Sna3-GFP to free GFP,Sna3-GFP [2],greatest
O=C(Nc1cccc(Cl)c1)c1coc(CN2CCN(c3ccc(F)cc3)CC2)n1 [DES-3035],Sna3-GFP trafficking to the vacuole (in words),Sna3-GFP [2],promote Sna3-GFP trafficking to the vacuole
COc1cc(/C=N/Nc2nc(Nc3cccc(C(F)(F)F)c3)nc(N3CCOCC3)n2)ccc1O [DES-2179],Cpy trafficking defect (block in vesicle trafficking),Carboxypeptidase Y (CPY); FIG. 1C,ameliorate this defect
same,ratio of Sna3-GFP to free GFP,Sna3-GFP [2],lowest ratio
same,Sna3-GFP trafficking to the vacuole (in words),Sna3-GFP [2],promotes Sna3-GFP trafficking to the vacuole
same,concentration at which efficacy of rescue peaks,"[1]; dose-response, FIG. 1B, above the peak growth slows",around 10 μM
same,K63-linked ubiquitination of proteins,"[3]; Nedd4-dependent manner, FIGS. 3A-3C",promote K63-linked ubiquitination of proteins
Cc1ccc(C)c(Nc2nc(N/N=C/c3ccncc3)nc(N3CCOCC3)n2)c1 [DES-5204],Sna3-GFP trafficking to the vacuole (in words),Sna3-GFP [2],promote Sna3-GFP trafficking to the vacuole
O=C(c1ccc(COc2ccc(OC(F)(F)F)cc2)o1)N1CCC(O)(c2ccc(Cl)cc2)CC1 [DES-2854],Sna3-GFP trafficking to the vacuole (in words),Sna3-GFP [2],promote Sna3-GFP trafficking to the vacuole
